Test results published in patent US9938263B2, “Gamma-secretase modulators” (The Regents of the University of California, A California …, priority 2013, dated 2018).

Tested on: Aβ42
Experiment: cell-based moderate throughput Aβ42 ELISA in SH-SY5Y-APP cells
Conditions: Homo sapiens, SH-SY5Y, human SHSY5Y neuroblastoma cells stably overexpressing human APP, Aβ42 secreted into media
Procedure: A variety of cell lines normally produce and secrete various Aβ peptide alloforms into the media upon culture in supportive media. Examples of cell lines routinely used to assess the ability of a compound to inhibit formation specific Aβ peptide alloforms such as Aβ42, upon treatment of the cells with various concentrations of the compound for approximately 16 h followed by determining the concentration of the various Aβ peptide alloforms in the media both with and without treatment with the compound [(e.g., HEK-293, N2a delta E9/Swe, SHSY5Y and primary cerebral cortical neuronal cultures from embryonic day 18 (E18) embryos from timed pregnant WT Sprague-Dawley rats) (Netzer, W I et al., Gleevec inhibits β-amyloid production but not Notch cleavage. See e.g., Proc. Natl. Acad. Sci. U.S.A. 2003; 100:12444-12449.
The SH-SY5Y-APP human cell line was derived by transfecting a human neuroblastoma (SH-SY5Y) cell line with a plasmid expressing wild type human APP751 cDNA and selecting for stable expression of human APP and human Aβ. In each case, the levels of Aβ42 or Aβtotal or Aβ38 peptides secreted into the media of these cells were measured using either two-site monoclonal antibody (mAb)-based sandwich ELISA assays (described herein for Aβ42 and Aβtotal) or in the case of Aβ38 EC50's, using either the Meso Scale Aβ38, 40, 42 triplex kit along with the Meso Scale Sector Imager 6000 according to the manufacturer's protocols. This SH-SY5Y-APP human cell line was used for all cell-based Aβ peptide immunochemical assays.
SH-SY5Y-APP cells were plated at 75,000 cells/well in 96-well tissue culture plates. After 16-18 h, the culture medium was replaced with fresh medium containing either compound or vehicle. Replicates of 3 wells per test concentration were used, with 10 concentrations at ½ log step intervals. Vehicle (0.12% DMSO) is included as a control.
Compounds disclosed herein were synthesized and assayed for biological activity (EC50) in a cell-based moderate throughput Aβ42 ELISA that utilizes human SHSY5Y neuroblastoma cells stably overexpressing human […] wild-type, as known in the art.

| IC50 [nM] | Structure (SMILES) |
| --- | --- |
| 53 | COc1nc(-c2csc(N3CC(O)Cn4nc5c(c43)CCC5)n2)ccc1-n1cnc(C)c1 (stereo not drawn) [15495 A] |
| 56 | CCn1nc2c(c1Nc1nc(-c3ccc(-n4cnc(C)c4)c(OC)n3)cs1)CCCC2 [Cmpd 003077] |
| 33 | CCn1nc2c(c1Nc1nc(-c3ccc(-n4cnc(C)c4)c(OC)n3)cs1)CCC2 [Cmpd 003783] |
| 71 | COc1nc(-c2csc(Nc3c4c(nn3C(C)(C)C)CCCC4)n2)cnc1-n1cnc(C)c1 [Cmpd 004019] |
| 57 | CCn1nc(C(F)(F)F)cc1Nc1nc(-c2ccc(-n3cnc(C)c3)c(OC)n2)cs1 [Cmpd 004102] |
| 77 | COc1nc(-c2csc(Nc3c4c(nn3C)CCC4)n2)ccc1-n1cnc(C)c1 [Cmpd 004346] |
| 38 | CCn1nc2c(c1Nc1nc(-c3ccc(-n4cnc(C)c4)c(OC)n3)cs1)CCC2(C)C [Cmpd 004365] |
| 35 | COc1nc(-c2csc(Nc3c4c(nn3CC(F)(F)F)CCC4)n2)ccc1-n1cnc(C)c1 [Cmpd 004723] |
| 24 | CCn1nc(C2(C)CC2)cc1Nc1nc(-c2ccc(-n3cnc(C)c3)c(OC)n2)cs1 [Cmpd 13563] |
| 6 | COc1nc(-c2csc(N3CCCn4nc5c(c43)CCCC5)n2)ccc1-n1cnc(C)c1 [Cmpd 13636] |
| 20 | COc1nc(-c2csc(Nc3c4c(nn3CC(C)(C)O)CCCC4)n2)ccc1-n1cnc(C)c1 [Cmpd 13674] |
| 17 | COc1nc(-c2csc(Nc3c4c(nn3CCF)CCCC4)n2)ccc1-n1cnc(C)c1 [Cmpd 13680] |
| 35 | CCn1nc2c(c1Nc1nc(-c3ccc(-n4cnc(C)c4)c(OC)n3)c(CO)s1)CCCC2 [Cmpd 13765] |
| 75 | COc1nc(-c2csc(Nc3cc(C4(C)CC4)nn3C)n2)ccc1-n1cnc(C)c1 [Cmpd 13886] |
| 11 | COc1nc(-c2csc(Nc3cc(C4(C(F)(F)F)CC4)nn3C)n2)ccc1-n1cnc(C)c1 [Cmpd 13887] |
| 27 | COc1nc(-c2csc(Nc3cc(C4(C)CC4)nn3CC(F)(F)F)n2)ccc1-n1cnc(C)c1 [Cmpd 13921] |
| 67 | COc1nc(-c2csc(Nc3cc(C4(C)CC4)nn3CCF)n2)ccc1-n1cnc(C)c1 [Cmpd 13922] |
| 19 | COc1nc(-c2csc(N3CCCn4nc5c(c43)CCC5)n2)ccc1-n1cnc(C)c1 [Cmpd 14035] |
| 39 | COc1nc(-c2csc(Nc3c4c(nn3CC(C)(C)O)CCC4)n2)ccc1-n1cnc(C)c1 [Cmpd 14104] |
| 64 | COc1nc(-c2csc(Nc3c4c(nn3CCF)CCC4)n2)ccc1-n1cnc(C)c1 [Cmpd 14106] |
| 89 | CCn1nc2c(c1Nc1nc(-c3cnc(-n4cnc(C)c4)c(OC)n3)cs1)CCCC2 [Cmpd 14257] |
| 85 | CCn1nc2c(c1Nc1nc(-c3ccc(-n4cnc(C)c4)c(OC)n3)c(CN(C)C)s1)CCCC2 [Cmpd 14508] |
| 98 | CCn1nc2c(c1Nc1nc(-c3ccc(-n4cnc(C)c4)c(OC)n3)c(CN3CCN(C)CC3)s1)CCCC2 [Cmpd 14548] |

| IC50 [nM] | Structure (SMILES) |
| --- | --- |
| 10 | COc1nc(-c2csc(N3CC(F)Cn4nc5c(c43)CCCC5)n2)ccc1-n1cnc(C)c1 (stereo not drawn) [Cmpd 14676] |
| 22 | CCn1nc2c(c1Nc1csc(-c3ccc(-n4cnc(C)c4)c(OC)n3)n1)CCCC2 [Cmpd 14777] |
| 67 | COc1nc(-c2csc(N3CC(N4C(=O)CCC4=O)Cn4nc5c(c43)CCCC5)n2)ccc1-n1cnc(C)c1 (stereo not drawn) [Cmpd 14780] |
| 57 | COc1nc(-c2csc(N3C/C(=N\O)Cn4nc5c(c43)CCC5)n2)ccc1-n1cnc(C)c1 [Cmpd 14839] |
| 59 | COc1nc(-c2csc(N3CC(N(C)C)Cn4nc5c(c43)CCCC5)n2)ccc1-n1cnc(C)c1 (stereo not drawn) [Cmpd 14885] |
| 35 | C=C1CN(c2nc(-c3ccc(-n4cnc(C)c4)c(OC)n3)cs2)c2c3c(nn2C1)CCCC3 [Cmpd 14945] |
| 19 | COc1nc(-c2csc(N3CC(N4CCCC4)Cn4nc5c(c43)CCCC5)n2)ccc1-n1cnc(C)c1 (stereo not drawn) [Cmpd 14946] |
| 34 | COc1nc(-c2csc(N3CC(O)(CO)Cn4nc5c(c43)CCCC5)n2)ccc1-n1cnc(C)c1 (stereo not drawn) [Cmpd 15001] |
| 65 | COc1nc(-c2csc(N3CCC(C(C)(C)O)n4nc5c(c43)CCCC5)n2)ccc1-n1cnc(C)c1 (stereo not drawn) [Cmpd 15002] |
| 50 | COc1nc(-c2nc(Nc3c4c(nn3CCF)CCCC4)sc2CN2CCN(C)CC2)ccc1-n1cnc(C)c1 [Cmpd 15003] |
| 55 | COc1nc(-c2csc(N3C/C(=N\O)Cn4nc5c(c43)CCCC5)n2)ccc1-n1cnc(C)c1 [Cmpd 15004] |
| 76 | CO/N=C1\CN(c2nc(-c3ccc(-n4cnc(C)c4)c(OC)n3)cs2)c2c3c(nn2C1)CCCC3 [Cmpd 15188] |
| 99 | COc1nc(-c2nc(Nc3c4c(nn3CCF)CCCC4)sc2CN2CCC(F)(F)C2)ccc1-n1cnc(C)c1 [Cmpd 15473] |
| 14 | CCn1nc(C2(C)CC2)cc1Nc1csc(-c2ccc(-n3cnc(C)c3)c(OC)n2)n1 [Cmpd 15587] |
| 7 | COc1nc(-c2nc(N3CCCn4nc5c(c43)CCCC5)cs2)ccc1-n1cnc(C)c1 [Cmpd 15635] |
| 18 | COc1nc(-c2nc(N3CCCn4nc(C5(C)CC5)cc43)cs2)ccc1-n1cnc(C)c1 [Cmpd 15666] |
| 5 | COc1nc(-c2nc(N3CCCn4nc5c(c43)CCC5)cs2)ccc1-n1cnc(C)c1 [Cmpd 15669] |
| 16 | COc1nc(-c2nc(N3CC(C)Cn4nc5c(c43)CCC5)cs2)ccc1-n1cnc(C)c1 (stereo not drawn) [Cmpd 15670] |
| 48 | COc1nc(-c2nc(Nc3c4c(nn3CCF)CCCC4)cs2)ccc1-n1cnc(C)c1 [Cmpd 15717] |
| 56 | COc1nc(-c2nc(Nc3cc(C4(C)CC4)nn3CCF)cs2)ccc1-n1cnc(C)c1 [Cmpd 15746] |
| 12 | COc1nc(-c2nc(N3CC(C)Cn4nc5c(c43)CCCC5)cs2)ccc1-n1cnc(C)c1 (stereo not drawn) [Cmpd 15830] |
| 30 | COc1nc(-c2nc(N3CC(C)Cn4nc(C5(C)CC5)cc43)cs2)ccc1-n1cnc(C)c1 (stereo not drawn) [Cmpd 15868] |
| 41 | COc1nc(-c2nc(N3CCCn4nc5c(c43)CCCC5)ns2)ccc1-n1cnc(C)c1 [Cmpd 16211] |

Same assay, conditions: human SHSY5Y neuroblastoma cells stably overexpressing human APP, Aβ42 secreted into media

| IC50 [nM] | Structure (SMILES) |
| --- | --- |
| 5 | COc1nc(-c2csc(N3CC(O)Cn4nc5c(c43)CCCC5)n2)ccc1-n1cnc(C)c1 (stereo not drawn) [14789 A] |
| 30 | COc1nc(-c2csc(N3CC(O)Cn4nc5c(c43)CCCC5)n2)ccc1-n1cnc(C)c1 (stereo not drawn) [14789 B] |
| 33 | COc1nc(-c2csc(N3CC(O)Cn4nc5c(c43)CCC5)n2)ccc1-n1cnc(C)c1 (stereo not drawn) [15496 B] |
| 44 | COc1nc(-c2csc(N3CC(O)Cn4nc5c(c43)CCC5)n2)ccc1-n1cnc(C)c1 (stereo not drawn) [Cmpd 14200] |
| 17 | COc1nc(-c2csc(N3CC(O)Cn4nc5c(c43)CCCC5)n2)ccc1-n1cnc(C)c1 (stereo not drawn) [Cmpd 14507] |
